Results: patent US20210145768A1, “MODULATING IMMUNE RESPONSE VIA TARGETING OF OLFACTORY RECEPTOR ACTIVITY” (La Jolla Institute for Allergy and Immunology, priority 2018, published 2021)

How the values were obtained:
Olfr2 [1] = molecular target: T1, Olfr2 (Mus musculus, UniProt Q9QWU6); assay: Secreted cytokines in supernatants of stimulated aortas (cytokine bead array); format: cell-based; set-up: Olfr2 expression was confirmed at the protein level on F4/80^+ vascular macrophages; from tissue; host or cells: explanted whole aortas, digested aortic cell suspensions (F4/80+ vascular macrophages) and blood monocytes of Apoe-/- C57BL/6J mice; living Apoe-/- mice for the in vivo study; settings: octanal 10 μM + LPS 500 ng/mL, 12 h, cytometric bead array
T1 sequence (Q9QWU6 1-327): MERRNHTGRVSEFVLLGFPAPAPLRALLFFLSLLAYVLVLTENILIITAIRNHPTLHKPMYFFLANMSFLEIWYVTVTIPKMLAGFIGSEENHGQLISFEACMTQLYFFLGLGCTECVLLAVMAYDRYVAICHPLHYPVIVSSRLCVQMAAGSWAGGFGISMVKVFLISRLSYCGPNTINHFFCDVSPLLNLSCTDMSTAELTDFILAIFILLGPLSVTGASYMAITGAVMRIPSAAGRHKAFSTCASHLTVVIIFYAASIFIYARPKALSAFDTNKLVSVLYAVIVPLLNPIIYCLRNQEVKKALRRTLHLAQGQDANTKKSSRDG
Method: Apoe^−/− mice were fed WD for 2 weeks before sacrifice for aorta explant culture. Whole aortas were incubated in culture medium with DMSO (0.1% as a vehicle), octanal (Oct, 10 μM), LPS (500 ng/mL) alone or octanal and LPS combined (LPS+Oct) for 12 h at 37° C. and 5% CO2. Subsequently, aortas were collected and further processed as below discussed for RNA extraction, and flow cytometry analysis. Culture supernatants were collected, aliquoted, and frozen at −80° C. until further analysis.
Supernatants of stimulated cells and aortic tissue were analyzed by BD CBA Flex Sets (BD Biosciences) for mouse TNFα, CCL2, CCL4, IL-1β, or human TNF, IL6, and IL-1β according to the manufacturer's protocol. Samples were analyzed with LSR-II (BD Biosciences). Data was acquired with FACSDiva software (BD Biosciences) and analyzed with FCAP array software 3.0 (BD Biosciences).

Olfr2 [2] = molecular target: T1, Olfr2; assay: Intracellular TNF staining in vascular macrophages and blood monocytes (flow cytometry); format: cell-based; set-up: Olfr2 expression was confirmed at the protein level on F4/80^+ vascular macrophages; from tissue; host or cells: explanted whole aortas, digested aortic cell suspensions (F4/80+ vascular macrophages) and blood monocytes of Apoe-/- C57BL/6J mice; living Apoe-/- mice for the in vivo study; settings: octanal
Method: To assess the functional properties of Olfr2 in monocytes, cells were enriched form Apoe−/− mice blood by the negative selection. Purified monocytes were then incubated as described above. TNF expression (TNF-PE) was evaluate by intracellular staining protocol by flow cytometry. Classical and non-classical monocytes were divided as previously described (Live, CD115+, LyC6+, and LyC6− respectively). […] Data are presented as means±SEM. *p<0.05, **p<0.01, ***p<0.005, ****p<0.001. p calculated by One-Way ANOVA test, Tukey's multiple comparisons test.
Whole aortas and mouse blood leukocytes were incubated in culture medium with Oct, (10 μM), LPS, (500 ng/mL) alone or combined (LPS+Oct) for 12h at 37° C. and 5% CO2. The protein transport inhibitor cocktail 1× (eBioscience) was added for whole 12h in the whole aorta samples and for the last 6 hours in the mouse blood leukocyte samples. […]
Cells were then washed, fixed, permeabilized applying the Intracellular Fixation and Permeabilization Buffer Set (eBioscience), and stained with mouse anti-TNF-PE (eBioscience). Samples were analyzed with LSR-II (BD Biosciences). Data was acquired with FACSDiva software (BD Biosciences) and analyzed with FlowJo software (Treestar Inc).

CCCCCCCC=O [octanal]
secretion of TNF, CCL2 and CCL4 protein into supernatant of treated aortas (Olfr2 [1]): enhanced production
secretion of TNF, CCL2 and CCL4 protein into supernatant of treated aortas (Olfr2 [1]; listed as Octanal): enhanced the secretion
TNF expression in Ly6C+ and Ly6C− blood monocytes (Olfr2 [2]): boosted
